Assay results as given in US20260083126A1, “ANTIMICROBIAL COMPOSITIONS” (AHV International B.V., priority 2022, published 2026).
≈ marks a conversion by molar mass, not a printed value. Where “and” joins values, the source holds several entries; their conditions need not be identical. Identical values can stand only once. Like-named read-outs stand apart in the source and are kept apart here.

Columns and labels:
[1] = test system: Staphylococcus epidermidis ATCC 35984; experiment: MIC assay (growth inhibition of planktonic microorganisms); assay type: cell-based; details: 24 h at 37° C., MHB-II; for MIC50 / MIC90: Staphylococcus epidermidis, ATCC35984; for MIC50 / S. epidermidis MIC50: reduction of final OD600 by 50%; for MIC50: read-out: S. epidermidis MIC50; for MIC90 / S. epidermidis MIC90: reduction of final OD600 by 90%; for MIC90: read-out: S. epidermidis MIC90
Protocol: (§1) The exact weighed amount was noted and the volume of solvent to reach a 80 mM dilution calculated. Half of the volume was added first, by adding Tween 80 and let stand for 5 minutes. In a second step, the other half of the volume DMSO was added and resuspended to help the dilution process. The closed tube was inverted 5-10 times and then vortexed very thoroughly for at least 30 seconds. If after this procedure crystals were still visible, the tube was placed in a shaker at 37° C. at 150 rpm for at least 30 minutes (it is indicated if the dissolution period was longer than 2 h). […] In case of Bis(4-Chlorophenyl) thiosulfonate, a lower concentrated stock solution of 2 mM needed to be prepared. For that, the required amount of compound was weighed in and 2% v/v Tween80 and 2% v/v DMSO of the end volume of the stock solution was added to the substance. This mix was heated in a water bath set to 40° C. and occasionally shaken. When the whole amount of the substance reached dissolution, the volume was filled up with growth medium until the end volume. This 2 mM stock solution of Bis(4-Chlorophenyl) thiosulfonate was used in the MIC plate and diluted two-fold, resulting in a testing range of Bis(4-Chlorophenyl) thiosulfonate from 1 mM to 0.002 mM.
(§2) The microorganisms as indicated in Table 4 were used to inoculate a tryptic soy agar (TSA) plate and incubated overnight at 37° C. After incubation 3-5 well-isolated colonies with the same morphology were selected from the TSA plate and resuspended in 2 mL 0.9% saline solution with 3-6 glass beads and vortexed. The optical density at 600 nm (OD600) of the bacterial suspension was measured with a spectrophotometer (Evolution™ 201/220 UV-Visible Spectrophotometer, Thermo Fisher Scientific) and diluted to an OD600 of 0.0008, which resembles 10^6 CFU/mL.
(§3) The MIC assay was performed in a flat-bottom 96-microtiter plate. 50 μL of MHB-II was added into columns 2-11, and 100 μL to column 12 for sterility control. 100 μL of the 8 mM test compound solution (method 1) was added to column 1. A two-fold dilution series of the solution in MHB-II was achieved by resuspending 50 μL of the 8 mM solution from column 1 to column 2. This step was repeated until column 10. The respective concentration of Tween 80 and DMSO in column 1 was 2.5%, which is two-fold diluted throughout the plate. 50 μL of the bacterial suspension was added to column 1-11. The microtiter plates were sealed with adhesive polyethylene film for sealing microplates (Diversified Biotech) and incubated for 24 h at 37° C. After incubation the OD was measured at 600 nm with the Varioskan (Thermo Fisher Scientific). The minimal concentration which causes reduction of final OD600 of the bacterial culture by 50% (MIC50) and by 90% (MIC90) was calculated after normalization of the obtained OD values to the growth control in column 11. This assay was repeated three times in three independent experiments.

[2] = test system: Pseudomonas aeruginosa ATCC 27853; experiment: as above; assay type: cell-based; details: for MIC50 / MIC90: Pseudomonas aeruginosa; for MIC50: ATCC27853, 24 h, read-out: P. aeruginosa MIC50; for MIC50 / P. aeruginosa MIC50: reduction of final OD600 by 50%; for MIC90: ATCC27853
Protocol: as §1, §2, §3
Hereafter, the stock solutions of the compounds were used in three repetitions in a minimal inhibitory concentration (MIC) assay at a 2-fold dilution range with various bacteria from the gram-positive and gram-negative group and a yeast, Candida albicans. The concentrations that show only less than 10% growth after 24 h were considered the MIC90-values, whereas the concentrations that show 50% growth after 24 h when compared to the bacterial growth control were considered the MIC50-values. Escherichia coli and Staphylococcus aureus were used as representatives for a gram-negative bacteria and gram-positive bacteria, respectively. Furthermore, the yeast C. albicans was also tested.
In an Eppendorf tube between 10-20 mg of the test compound was weighed. Hereafter, the required amount of Tween 80 was added, followed by the amount DMSO. After vigorous shaking, the dissolved and transparent dilutions were diluted 10 times with Mueller Hinton Broth (MHB) for the MIC assay. […]

[3] = test system: Staphylococcus epidermis ATCC 35984 biofilm; experiment: MBEC assay (48 h biofilm, CFU log reduction); assay type: cell-based, Staphylococcus epidermidis; details: 20 h treatment, 0.125-1 mM tested
Protocol: (§4) For the MBEC assay (method 1.3) the solutions need to be diluted to a final concentration of 2 mM in 0.9% saline solution and then further diluted to 1 mM, 0.5 mM, 0.25 mM and 0.125 mM in saline. Those dilutions were added as treatment to the 96 well plates with the grown biofilm (see method 3) (0.5 mL needed for one strain). The dilution must stay transparent.
(§5) Frozen aliquots of Staphylococcus epidermis ATCC 35984 and Pseudomonas aeruginosa ATCC 27853 were used to inoculate 20 mL of Tryptic Soy Broth (TSB) in a 100 mL Erlenmeyer flask at 37° C. and 150 rpm and incubated overnight (Infors). The OD600 of the overnight culture was measured with a spectrophotometer (Evolution™ 201/220 UV-Visible Spectrophotometer, Thermo Fisher Scientific) and diluted to an ( ) 600 of 0.2, which resembles 10^8 CFU/mL. The cell suspension of OD600=0.2 was seeded into a U-bottom-shaped 96 well plates by pipetting 100 μL per well in column 1-11, column 12 was filled with 100 μL medium as sterility control. The 96 well plates were sealed with adhesive polyethylene film for sealing microplates and incubated for 48 h at 37° C. at static conditions. After the biofilm growth phase, 100 μL of treatment solutions (method 1) were added to the vials resulting in treatment concentrations of 1 mM, 0.5 mM, 0.25 mM and 0.125 mM and with the respective concentration of Tween 80 and DMSO each at 0.63%, 0.32%, 0.16% and 0.08%. The same concentration was applied to four different wells of the same bacterial strain, resulting in four replicates for each concentration and strain. The treatment was incubated for 20 h at 37° C. at static conditions. After the treatment the supernatant was carefully removed and the well with the biofilm washed carefully for one time with 200 μL 0.9% saline solution. 200 μL saline solution was added and the biofilm was resuspended thoroughly. When fully homogenized then 20 μl, was used for the first dilution in 180 μL 0.9% saline solution, which was prepared in a second plate. This dilution was continued until dilution step 10E-5 and 100 μL of the 10E-4 and 10E-5 dilution plated on a TSA plate. The TSA plates were incubated at 37° C. for 24 h. The colonies on the plates were enumerated, the colony forming units per ml, of the dispensed biofilm and averages thereof and the log reduction in comparison with the untreated sample from the same wells plate calculated. Reduction of colony forming units goes hand in hand with the thickness of the biofilm and thus with the number bacteria that are present in the biofilm. Therefore, a significant reduction of colony forming units in the biofilm was defined at the value of log reduction >1 or more. This assay was repeated two times in two independent experiments)

[4] = test system: Pseudomonas aeruginosa ATCC 27853 biofilm; experiment: MBEC assay (48 h biofilm, CFU log reduction); assay type: cell-based; details: 20 h treatment, 0.125-1 mM tested
Protocol: as §4, §5

[5] = reduction of final OD600 by 90%, 24 h at 37° C., MHB-II, read-out: P. aeruginosa MIC90
[6] = reduction of final OD600 by 90%, 24 h at 37° C., MHB-II

Row | SMILES | MIC50 [1] [µM] | MIC90 [1] [µM] | MIC50 ([2]; 24 h at 37° C., MHB-II) [µM] | MIC90 [2, 5] [µM] | S. epidermidis MBEC mM with log reduction ≥1 [3] [mM] | P. aeruginosa MBEC mM with log reduction ≥1 [4] [mM] | S. epidermidis MIC50 [1] | S. epidermidis MIC90 [1] [µM] | P. aeruginosa MIC50 ([2]; 24 h at 37° C., MHB-II) [µM] | P. aeruginosa MIC90 [2, 6] [µM] | MIC90 ([2]; Example 2b, FIG. 1, no MIC90 detected in the tested range, read-out: Average MIC90 P. aeruginosa (Pa)) [µM]
1 | Clc1ccc(SSc2ccc(Cl)cc2)cc1 [Bis (4-chlorophenyl) disulfide, Bis(4-chlorophenyl) disulfide] | 10 (≈ 2.87 µg/mL) | 30 (≈ 8.62 µg/mL) | 20 (≈ 5.74 µg/mL) | 30 (≈ 8.62 µg/mL) | >1 | >1 | – | – | – | – | –
2 | O=S(=O)(Sc1ccc(Cl)cc1)c1ccc(Cl)cc1 [Bis (4-chlorophenyl) thiosulfonate, Bis(4-chlorophenyl) thiosulfonate] | – | – | – | – | >1 | >1 | 30 µM | 60 | 250 | 2000 | –
3 | Fc1ccc(SSc2ccc(F)cc2)cc1 [Bis (4-fluorophenyl) disulfide, Bis(4-fluorophenyl) disulfide] | 60 (≈ 15.3 µg/mL) | 60 (≈ 15.3 µg/mL) | 125 (≈ 31.8 µg/mL) | 250 (≈ 63.6 µg/mL) | >1 | >1 | – | – | 130 | – | > 4000
4 | [O-][S+](Sc1ccc(F)cc1)c1ccc(F)cc1 (centres unmarked) [Bis (4-fluorophenyl) thiosulfinate, Bis(4-fluorophenyl) thiosulfinate] | – | – | – | – | >1 | >1 | 125 µM and 130 µM | 250 | 1000 | 4000 | –
5 | O=S(=O)(Sc1ccc(F)cc1)c1ccc(F)cc1 [Bis (4-fluorophenyl) thiosulfonate, Bis(4-fluorophenyl) thiosulfonate] | – | – | – | – | >1 | >1 | 250 µM | 2000 | 2000 | 2000 | –
6 | CC(C)SS(=O)(=O)C(C)C [Di-isopropyl thiosulfonate] | – | – | – | – | >1 | >1 | 2000 µM | 2000 | 2000 | 2000 | –
7 | CCCSSCCC [Di-n-propyl disulfide, reference compound] | > 4000 | > 4000 | > 4000 | > 4000 | >1 | >4 | – | – | – | – | –
8 | CCCSS(=O)(=O)CCC [Di-n-propyl thiosulfonate, reference compound] | – | – | – | – | 0.25 | 1 | 250 µM | 250 | 250 | 250 | –
